In patent publication EP1481666A1, “A composition for re-establishment of the vaginal ecosystem” (ROTTAPHARM S.R.L., priority 2003, dated 2004):

Test system: Lactobacillus acidophilus ATCC 314
Assay: Test 1: comparison between nutrient substrates (use of substrate added to MRS broth base by Lactobacillus)
Type: cell-based, Lactobacillus acidophilus ATCC 314 (human origin)
Conditions: for Lactic acid (%): HPLC; for Lactic acid (%) / D.O. / pH: 37°C, 24 hours; for D.O.: optical density of the culture; for growth and production of lactic acid: concentrations from 0.5 to 2.0%; for pH: starting pH 5.7±0.2
Text: Since the Lactobacilli control the vaginal pH by means of the production of lactic acid it appeared to be useful to verify, both directly and indirectly, their capacity to utilise the various substrates proposed for the production of lactic acid and consequently their utility in the formulation of the composition.
• Lactobacillus acidophilus ATCC 314 (human origin) • Lactobacillus acidophilus wt (from vaginal swab)
• MRS broth (Lactobacillus broth according to De Man, Rogose) Merck • MRS broth base (without D(+)-glucose) • Series of MRS broth base media to which maltodextrins were added in percentages lying between 0.1 and 5% • Series of MRS broth base media to which glycogen was added in quantities lying between 0.5 and 2% • Series of MRS broth base media to which glucose was added in quantities lying between 0.1 and 2% • Series of MRS broth base media to which lactose was added in quantities lying between 0.5 and 2% Note: the pH of the media was always 5.7±0.2.
After having prepared fresh cultures of Lactobacilli in agar, an inoculation into five ml of MRS broth was incubated at 37°C for 24 hours. Aliquotes were prepared from 60 ml of the previously described media and in each of these were inoculated 600 µl of the culture in agar, with subsequent incubation at 37°C for 24 hours. As negative control aliquotes of 3 ml of the above-described media without inoculation of Lactobacilli were incubated. As positive control Merck MRS broth was utilised.
After 24 hours of incubation the optical density of the cultures was measured, the pH of the media was determined after centrifugation and filtration of the supernatant with a 0.45µ filter. The lactic acid present in the culture was also quantified by the HPLC method utilising as a control a laboratory standard of the same. These evaluation parameters have the following significance: • An increase in optical density confirms the growth of Lactobacilli; • Reduction in pH indicates the formation of lactic acid; • The quantitative determination of the lactic acid measures the efficiency of the use of the nutrient substrate by the Lactobacilli.

[1] = result in words, concentration of 0.1%
[2] = substrate 0.5 % in MRS broth base
[3] = substrate 1.0 % in MRS broth base
[4] = substrate 2.0 % in MRS broth base

## OC[C@H]1OC(O)[C@H](O)[C@@H](O)[C@@H]1O (stereo partly shown) [GLU, Glucose]
Substrate 0.1 %
  Lactic acid (%): 0.17%
  D.O.: 0.665
Substrate 0.5 %
  Lactic acid (%): 0.90%
  D.O.: 1.540
Substrate 1.0 %
  Lactic acid (%): 1.80%
  D.O.: 2.593
Substrate 2.0 %
  Lactic acid (%): 2.43%
  D.O.: 2.540
[1]
  utilised for the growth of Lactobacillus: significant
  utilised for the production of lactic acid: hardly utilised
Result in words
  growth and production of lactic acid: utilised in a useful and dose-dependent manner
Substrate 0.1 % in MRS broth base
  pH: 5.56
[2]
  pH: 4.74
[3]
  pH: 4.33
[4]
  pH: 4.57

## OC[C@H]1O[C@@H](O[C@H]2[C@H](O)[C@@H](O)C(O)O[C@@H]2CO)[C@H](O)[C@@H](O)[C@H]1O (stereo partly shown) [LA, Lactose]
Substrate 0.5 %
  Lactic acid (%): <0.10%
  D.O.: 0.218
Substrate 1.0 %
  Lactic acid (%): <0.10%
  D.O.: 0.221
Substrate 2.0 %
  Lactic acid (%): <0.10%
  D.O.: 0.179
Result in words
  growth and production of lactic acid: rather poor
[2]
  pH: 5.88
[3]
  pH: 5.91
[4]
  pH: 5.94
